Data as given in US20230032283A1, “Topical Compositions For Treating Skin Ailments” (priority 2021, published 2023).

Test system: skin conditions (boil, folliculitis, ingrown hair)
Experiment: Empirical studies of active ingredients in topical compositions
Format: in vivo, human

Compound | relieving pain of papule-like boil or ingrown hair conditions (1% by weight in composition) | treating contemplated skin conditions (antibiotic ingredients blended into compositions)
CCCCOc1ccc(OCCCN2CCOCC2)cc1 [Pramoxine] | effective | 
bacitracin zinc |  | effective
